We go through 7 compounds from article PMC12223813, “Antiproliferative and Trypanocidal Activity of Ivermectin Bioconjugates” (ACS Omega, 2025).

Read-outs that look alike come from different tables or passages of the source.

The GI50 is the concentration giving 50% growth inhibition. The IC50 is the concentration that inhibits the measured activity by half.

A short description of one data set: in vitro. As to conditions: human. The method, then: (§1) The trypanocidal and cytotoxic activities of the newly synthesized IVR bioconjugates and their conjugation partners were determined for bloodstream forms of T. brucei brucei and human myeloid HL-60 cells in vitro using the resazurin cell viability assay as previously described.
(§2) Test compounds were assayed at 10-fold dilutions ranging from 100 μM to 1 nM in the presence of 0.9% DMSO. Controls were grown in the culture medium containing only 0.9% DMSO. The assays were cultured in an incubator at 37 °C in a humidified atmosphere containing 5% CO2. After 24 h incubation, 20 μL of 0.5 mM resazurin (prepared in sterile PBS) was added, and the cultures were grown for another 48 h. Then, the proliferation of the cells was determined by measuring the absorbance at 570 nm (test wavelength) and 630 nm (reference wavelength) using a microplate reader.

Data set [1] concerns bloodstream forms of T. b. brucei (427-221a clone). Put plainly: microbe, parasite or virus in culture. As to conditions: for GI50: Trypanosoma brucei, 72 h, read-out: T. brucei GI50, bloodstream forms, 72 h total (24 h + 48 h with resazurin), mean ± SD of three independent experiments. As for the experimental part:
as §1, §2
(Resazurin is reduced to fluorescent resorufin, in cell work by metabolically active cells.)

Data set [2] has as its system human promyelocytic leukemia HL-60 cells. In words: Cytotoxic activity, resazurin cell viability assay. As to conditions: 72 h total (24 h + 48 h with resazurin), mean ± SD of three independent experiments. The format is cell-based. As for the experimental part:
as §1, §2

In data set [3] the test system is A549, human lung cancer cell line. In words: Antiproliferative activity, MTT assay. As to conditions: for IC50: Homo sapiens, A549, 72 h, MTT, mean ± SD; for A549 SI: SI = IC50 HaCaT/IC50 A549. The format is cell-based. The method, then:
(§3) Additionally, to assess the selectivity of these compounds toward cancer cells, we included an immortalized keratinocyte cell line from adult human skin (HaCaT) in the antiproliferative activity tests. Doxorubicin served as the reference anticancer drug.
(§4) The culture media were enriched with 10% fetal bovine serum (FBS, Sigma-Aldrich, St. Louis, MO, USA), 20 mM HEPES (Biowest, Nuaillé, France), and antibiotics (100 U/mL penicillin and 100 μg/mL streptomycin) obtained from Gibco (Grand Island, NY, USA). The cells were maintained in a humidified incubator at 37 °C with 5% CO2 until they reached 80–90% confluence, after which they were used for further experiments.
(§5) To assess the cytotoxicity, the cells (0.5 × 10^4/well) were plated in 96-well plates and allowed to adhere for 24 h. The MTT (3-(4,5-dimethylthiazol-2-yl)-2,5-diphenyltetrazolium bromide) assay was used to evaluate the cytotoxic effects of IVR bioconjugates on all tested cell lines. After 24 h incubation, cells were exposed to varying concentrations (1 to 100 μM) of the test compounds for 72 h. Following the treatment, the medium was discarded, and a 0.5 mg mL^–1 MTT solution was added to each well and incubation was continued for another 4 h. Mitochondrial enzyme activity facilitated the formation of formazan crystals, which were subsequently dissolved in DMSO-isopropanol (1:1, v/v), producing a violet-colored solution. A 100 μL aliquot of this solution was transferred to the well, and absorbance was recorded at 570 nm using a MultiscanGo spectrophotometer (ThermoFisher Scientific, Carlsbad, CA, USA).
(§6) Cytotoxicity was quantified by comparing the absorbance of the treated cells to that of untreated controls using the formula: [A]/[B] × 100, where [A] represents the absorbance of the treated sample and [B] corresponds to the absorbance of the control sample. A decrease in MTT levels reflects a decrease in cell viability.

For data set [4], the system named is HCT-116, human primary colon cancer cell line. In words: Antiproliferative activity, MTT assay. The data set is classed as cell-based. Particulars: for IC50: Homo sapiens, HCT-116, 72 h, MTT, mean ± SD; for HCT-116 SI: SI = IC50 HaCaT/IC50 HCT-116. The method, then: as §3, §4, §5, §6
For orientation: Tetrazolium assays rely on reduction of a dye to a coloured formazan, in cell work by metabolically active cells.

Data set [5] deals with MDA-MB-231, human triple-negative breast cancer cell line. Put plainly: Antiproliferative activity, MTT assay. The format is cell-based. As to conditions: for IC50: Homo sapiens, MDA-MB-231, 72 h, MTT, mean ± SD; for MDA-MB-231 SI: SI = IC50 HaCaT/IC50 MDA-MB-231. As for the experimental part: as §3, §4, §5, §6
Data set [6] deals with PC3, human metastatic prostate cancer cell line. In words: Antiproliferative activity, MTT assay. The format is cell-based. As to conditions: for IC50: Homo sapiens, 72 h, MTT, mean ± SD; for PC3 SI: SI = IC50 HaCaT/IC50 PC3. The method, then: as §3, §4, §5, §6
In data set [7] the test system is HaCaT, human immortalized keratinocyte cell line. In words: Cytotoxicity toward normal cells, MTT assay. The data set is classed as cell-based. Particulars: 72 h, mean ± SD. As for the experimental part:
as §3, §4, §5, §6

`CCC(C)C1OC2(CCC1C)CC1CC(CC=C(C)C(OC(=O)Cn3cc(COC(=O)CCC(=O)OC4OC5OC6(C)CCC7C(C)CCC(C4C)C57OO6)nn3)C(C)C=CC=C3COC4C(O)C(C)=CC(C(=O)O1)C34O)O2` (stereo not shown) [compound 16, Ivermectin–Artesunate Conjugate]: the selectivity ratio in the data set “in vitro” was more than 256. Besides, the “selectivity GI50 ratio” value in data set [1] (GI50(HL-60)/GI50(T. brucei)) stood at 46.2. In addition, the “antitrypanosomal activity, times stronger than IVR” value in data set [1] (relative to IVR GI50) stood at 7 times. Further, the “antitrypanosomal activity, times stronger than artesunate” value in data set [1] (relative to artesunate GI50) worked out at 9 times. For the same compound, the GI50 in data set [2] came out at 18 ± 6 µM. For the same compound, in data set [3], the IC50 is 3.8 ± 1.3 µM and the “A549 SI” value is on record as more than 26.3. Also, in data set [4], the IC50 was 4.5 ± 0.6 µM and the “HCT-116 SI” value is recorded as more than 22.2. In addition, in data set [5], the IC50 turned out to be 13 ± 4.1 µM and the “MDA-MB-231 SI” value is more than 7.7. In addition, in data set [6], the IC50 was 20.8 ± 7.2 µM and the “PC3 SI” value is reported as more than 4.8. In data set [7], this compound showed an IC50 of more than 100 µM.

For the compound `C=C[C@H]1C[N@@]2CC[C@H]1C[C@@H]2[C@@H](O)c1ccnc2ccccc12` [cinchonine, reference compound], the “selectivity GI50 ratio” value in data set [1] (GI50(HL-60)/GI50(T. brucei)) was more than 58.8. For the same compound, the GI50 in data set [1] is 1.7 ± 0.6 µM; in data set [2], more than 100 µM. Also, the IC50 in data set [3] was more than 100 µM; in data set [4], 78.2 ± 5.8 µM; in data set [5], 65.3 ± 2.8 µM; in data set [6], 74.3 ± 5.4 µM; in data set [7], more than 100 µM. In addition, in data set [3], the “A549 SI” value is reported as “∼1.0”. Also, the “HCT-116 SI” value in data set [4] is reported as more than 1.3. For the same compound, the “MDA-MB-231 SI” value in data set [5] was more than 1.5. Further, in data set [6], the “PC3 SI” value is more than 1.3.

With `C=C[C@H]1C[N@@]2CC[C@H]1C[C@H]2[C@H](O)c1ccnc2ccc(OC)cc12` [quinine, reference compound], the GI50 in data set [1] was 1.1 ± 0.3 µM; in data set [2], more than 100 µM. Moreover, the IC50 is 56.4 ± 3.2 µM in data set [3]; 32.8 ± 3.8 µM in data set [4]; 54.4 ± 7 µM in data set [5]; 56.3 ± 7.2 µM in data set [6]; more than 100 µM in data set [7].

In the case of `CC[C@H](C)[C@H]1O[C@]2(CC[C@@H]1C)C[C@@H]1C[C@@H](C/C=C(\C)[C@@H](OC(=O)N[C@H]3CCc4cc(OC)c(OC)c(OC)c4-c4ccc(SC)c(=O)cc43)[C@@H](C)/C=C/C=C3\CO[C@@H]4[C@H](O)C(C)=C[C@@H](C(=O)O1)[C@]34O)O2` [compound 8], the “selectivity GI50 ratio” value in data set [1] (GI50(HL-60)/GI50(T. brucei)) came to 7.2. For the same compound, the values for the GI50 in data set [1] and in data set [2] were 1.4 ± 0.5 µM and 10.1 ± 4.9 µM, respectively. Further, the IC50 in data set [3] was 12.4 ± 2.6 µM; in data set [4], 7.5 ± 1.6 µM; in data set [5] it was 6.6 ± 0.6 µM; in data set [6] it was 85.1 ± 9.8 µM; in data set [7], more than 100 µM. The “A549 SI” value in data set [3] was more than 8.1. Further, the “HCT-116 SI” value in data set [4] was more than 13.3. Besides, the “MDA-MB-231 SI” value in data set [5] is more than 15.2. The “PC3 SI” value in data set [6] is given as more than 1.2.

On to `CC[C@H](C)[C@H]1O[C@]2(CC[C@@H]1C)C[C@@H]1C[C@@H](C/C=C(\C)[C@@H](O[C@H]3C[C@H](OC)[C@@H](O[C@H]4C[C@H](OC)[C@@H](O)[C@H](C)O4)[C@H](C)O3)[C@@H](C)/C=C/C=C3\CO[C@@H]4[C@H](O)C(C)=C[C@@H](C(=O)O1)[C@]34O)O2` [compound 1, Ivermectin], for which, in data set [1], the “selectivity GI50 ratio” value came out at 10.3. In data set [2], the GI50 is 30 ± 1.1 µM. The IC50 came out at 7.2 ± 1.4 µM in data set [3]; 9.9 ± 1.1 µM in data set [4]; 8.7 ± 3.2 µM in data set [5]; 33.9 ± 6.3 µM in data set [6]; 12.6 ± 4.3 µM in data set [7]. The “A549 SI” value in data set [3] was 1.8. For the same compound, the “HCT-116 SI” value in data set [4] is 1.3. The “MDA-MB-231 SI” value in data set [5] is 1.4. Besides, the “PC3 SI” value in data set [6] is reported as 0.4.

On to `O=c1[nH]c(=O)n([C@H]2C[C@H](O)[C@@H](CO)O2)cc1F` [floxuridine, reference compound], for which the “selectivity GI50 ratio” value in data set [1] (GI50(HL-60)/GI50(T. brucei)) is more than 45.5. The figures for the GI50 in data set [1] and in data set [2] were 2.2 ± 0.4 µM and more than 100 µM, respectively. For the same compound, the IC50 is 26.4 ± 3.8 µM in data set [3]; 11.7 ± 4.2 µM in data set [4]; 22.2 ± 3.4 µM in data set [5]; 15.7 ± 3.3 µM in data set [6]; 24.3 ± 7.3 µM in data set [7]. The “A549 SI” value in data set [3] is listed as 0.9. Moreover, the “HCT-116 SI” value in data set [4] was 2.1. In data set [5], the “MDA-MB-231 SI” value amounted to 1.1. Besides, the “PC3 SI” value in data set [6] is 1.5.

In the case of `CCC(C)C1OC2(CCC1C)CC1CC(CC=C(C)C(OC(=O)OCC3OC(n4cc(C)c(=O)[nH]c4=O)CC3N=[N+]=[N-])C(C)C=CC=C3COC4C(O)C(C)=CC(C(=O)O1)C34O)O2` (stereo not shown) [compound 11, Ivermectin–Azidothymidine Conjugate], in data set [1] (GI50(HL-60)/GI50(T. brucei)), the “selectivity GI50 ratio” value worked out at 5.6. Further, the GI50 in data set [2] came to 11.1 ± 4.1 µM. Besides, the IC50 was 8.2 ± 1.9 µM in data set [3]; 7.7 ± 3.1 µM in data set [4]; 12.5 ± 1.5 µM in data set [5]; 8.1 ± 3.2 µM in data set [6]; 26.1 ± 3.3 µM in data set [7]. Besides, in data set [3], the “A549 SI” value stood at 3.2. Further, the “HCT-116 SI” value in data set [4] worked out at 3.4. Further, the “MDA-MB-231 SI” value in data set [5] stood at 2.1. Moreover, the “PC3 SI” value in data set [6] was 3.2.
